The values that follow come from patent publication US7476670B2, “Purine derivatives, method for preparing, pharmaceutical compositions and novel use” (Aventis Pharma S.A., priority 2003, dated 2009).

Holding throughout (format): biochemical
Assay [1] addresses CaCiv1 (Candida albicans, UniProt A0A1D8PH53). Description: Assay for inhibition of CIV-CDK (CIV1) activity. The source says:
1) Assay for Inhibition of CIV-CDK (CIV1) Activity
a) Preparation of the Reagents

In assay [2] the target is Cyclin Dependent kinase 2 (CDK2) (Homo sapiens, UniProt P24941). Description: Assay for inhibition of CDK2 activity. Conditions: [33P]ATP, read-out: percentage inhibition at 20 μM. As to the method:
The inhibition of the kinase activity of Cyclin Dependent kinase 2 (CDK2) is determined by measuring the phosphorylation of its substrate peptide.
The assay is carried out in a final volume of 50 μl.
The incubation buffer as follows:
• 50 mM Hepes/NaOH pH 7.5 • 10 mM MgCl2 • 1 mM DTT 5 μl of the 10-times concentrated inhibitor are added to 25 μl of incubation buffer containing 0.8 U/μL final concentration of the enzyme; 10 μL of incubation buffer containing 0.0025 mg/ml of peptide substrate are then added and, finally, 10 μL of incubation buffer containing 2 mM ATP and radiolabeled ATP, [^33P]ATP (0.25 μCi), are added. The reaction is stopped after incubation for 10 minutes at 37° C. • Results obtained expressed as percentage inhibition at 20 μM • Example 2 97% • Example 27 97% • Example 30 99% 4) Assay for Inhibition of CDK1 Activity

The test system of assay [3] is Abl kinase. Description: Assay for inhibition of Abl activity. Conditions: fluorescence polarization. As to the method: The inhibition of the kinase activity is determined by fluorescence polarization, the Abl kinase phosphorylates a peptide detected by adding an anti-phosphopeptide antibody coupled to a fluorescent label.
The assay is carried out in a final volume of 50 μl; all the reagents are prepared in a buffer: • 20 mM Hepes/NaOH pH 7.5 • 5 mM MgCl2 • 100 μM Na2VO4 • 1 mM DTT • 100 μM EDTA/NaOH • 0.01% Brij35 5 μl of the 10-times concentrated inhibitor are added to 25 μl of enzyme (1000 U/ml final concentration), (Calbiochem ref 102555). After incubation for 5 minutes at ambient temperature, 10 μL of PolyGT (400 ng/ml final concentration) and 10 μL of ATP (5 μM final concentration) are added. The detection is carried out after incubation for 15 minutes at 30° C. • Results obtained expressed as percentage inhibition at 20 μM • Example 24 100% • Example 2 100% • Example 32 100% 6) Assay for Inhibition of ZAP Kinase Activity
In general terms: Polarisation of emitted light reports the rotation of a fluorescent probe.

Assay [4] has as its target GSK3beta (Homo sapiens, UniProt P49841). In words: Assay for inhibition of GSK3beta activity. Conditions: [33P]ATP; read-out: IC50s expressed as micromolar. How it is done:
(§1) The inhibition of the kinase activity is determined by measuring the phosphorylation of its substrate peptide.
The assay is carried out in a final volume of 40 μl; all the reagents are prepared in a buffer: • 50 mM HEPES pH 7.5 • 0.03% triton X100 • 10 mM MgCl2 • 5% Glycerol • 1 mM DTT 10 μl of the 10-times concentrated inhibitor are added to 5 μl of enzyme (20 ng final concentration), and 5 μl of peptide (1 μM final concentration) then 2.5 μof incubation buffer containing 16 μM ATP and 2.5 μl of radiolabeled ATP, [^33P]ATP (50 nCi) are added. After incubation for 15 minutes at ambient temperature, 10 μl of incubation buffer containing 1 μM of substrate.

Assay [5] deals with PLK1 (Homo sapiens, UniProt P53350). Description: Assay for inhibition of PLK1 activity. The conditions noted are these: [33P]ATP; read-out: IC50s expressed as micromolar. As to the method: as §1
The assay is carried out in a final volume of 40 μl; all the reagents are prepared in a buffer: • 50 mM HEPES pH 7.5 • 0.03% triton X100 • 10 mM MgCl2 • 5% Glycerol • 1 mM DTT 10 μl of the 10-times concentrated inhibitor are added to 5 μl of enzyme (75 ng final concentration), and 5 μl of peptide (1 μM final concentration), then 2.5 μl of incubation buffer containing 40 μM ATP and 2.5 μl of radiolabeled ATP, [^33P]ATP (500 nCi), are added. After incubation for 15 minutes at ambient temperature, 10 μl of incubation buffer containing 192 nM of substrate. […] Reference method for broth dilution antifungal susceptibility testing of yeasts. Approved Standard M27-A. NCCLS, Villanova, Pa.); the minimum concentration with which a visible decrease is observed in the cloudiness of the cell growth (at least 80% compared to a control without product) is the Minimum Inhibitory Concentration (MIC) of the antifungal agent with respect to the strain tested.

In assay [6] the target is T1, SRC kinase (Homo sapiens, UniProt P12931).
T1 construct: purchased Upstate Biotechnology 14-117
Description: Assay for inhibition of SRC kinase activity. The conditions noted are these: fluorescence polarization, read-out: percentage inhibition at 20 μM. How it is done:
2) Assay for Inhibition of SRC Kinase Activity
The inhibition is determined by fluorescence polarization, the […] kinase phosphorylates a peptide detected by adding an anti-phosphopeptide antibody coupled to a fluorescent label.
The assay is carried out in a final volume of 50 μl; all the reagents are prepared in a buffer: • 25 mM HEPES/NaOH pH 7.6 • 5 mM MgCl2 • 2 mM MnCl2 • 50 μM Na2VO4 5 μl of the 10-times concentrated inhibitor are added to 25 μl of enzyme (12 U/ml final concentration), (Upstate Biotechnology ref 14-117). After incubation for 5 minutes at ambient temperature, 10 μl of PolyGluTyr 4/1 (150 ng/ml final concentration) and 10 μl of ATP (5 μM final concentration) are added. The detection is carried out after incubation for 20 minutes at ambient temperature. • Results obtained expressed as percentage inhibition at 20 μM • Example 8 98% • Example 15 99% • Example 20 99% • Example 24 99% • Example 27 95% • Example 30 99% • Example 32 100% • Example 38 95% 3) Assay for Inhibition of CDK2 Activity

Assay [7] deals with T2, ZAP kinase (Homo sapiens, UniProt P43403).
T2 construct: purchased Panvera P2782
T2 sequence (P43403 1-619): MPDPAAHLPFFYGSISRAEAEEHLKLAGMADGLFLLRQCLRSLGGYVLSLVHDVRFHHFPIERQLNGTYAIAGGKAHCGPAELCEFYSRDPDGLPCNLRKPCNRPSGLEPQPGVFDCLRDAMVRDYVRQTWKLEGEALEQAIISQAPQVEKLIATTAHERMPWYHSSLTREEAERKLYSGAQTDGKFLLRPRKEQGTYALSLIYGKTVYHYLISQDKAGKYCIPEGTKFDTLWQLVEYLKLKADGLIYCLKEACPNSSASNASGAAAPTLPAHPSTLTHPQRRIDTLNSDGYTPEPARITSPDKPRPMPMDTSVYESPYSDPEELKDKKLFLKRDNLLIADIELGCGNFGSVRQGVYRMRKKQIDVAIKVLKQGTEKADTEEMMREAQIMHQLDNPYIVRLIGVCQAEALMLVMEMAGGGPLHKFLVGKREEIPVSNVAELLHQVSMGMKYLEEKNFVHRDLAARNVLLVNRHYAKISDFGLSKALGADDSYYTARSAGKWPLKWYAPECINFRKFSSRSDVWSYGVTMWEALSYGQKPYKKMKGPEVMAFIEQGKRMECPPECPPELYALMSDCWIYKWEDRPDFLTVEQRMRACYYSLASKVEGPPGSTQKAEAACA
Description: Assay for inhibition of ZAP kinase activity. Conditions: fluorescence polarization, read-out: percentage inhibition at 20 μM. As to the method:
The inhibition of the kinase activity is determined by fluorescence polarization, the ZAP kinase phosphorylates a peptide detected by adding an anti-phosphopeptide antibody coupled to a fluorescent label.
The assay is carried out in a final volume of 50 μl; all the reagents are prepared in a buffer: • 20 mM Tris/HCl pH 7.7 • 7 mM MnCl2 • 50 μM Na2VO4 5 μl of the 10-times concentrated inhibitor are added to 25 μl of enzyme (0.7 μg/ml final concentration) (Panvera ref P2782). After incubation for 5 minutes at ambient temperature, 10 μl of PolyGT (300 ng/ml final concentration) and 10 μl of ATP (0.25 μM final concentration) are added. The detection is carried out after incubation for 15 minutes at ambient temperature. • Results obtained expressed as percentage inhibition at 20 μM • Example 8 98% • Example 20 95% • Example 24 96% 7) Assay for Inhibition of Casein Kinase II Activity

Assay [8] addresses JNK3 kinase (Homo sapiens, UniProt P53779). In words: Assay for inhibition of JNK3 activity. Conditions: fluorescence polarization, ATP 6 μM; read-out: IC50s expressed as micromolar. As to the method: The inhibition of the kinase activity is determined by fluorescence polarization, the JNK3 kinase phosphorylates a peptide detected by adding an anti-phosphopeptide antibody coupled to a fluorescent label.
The assay is carried out in a final volume of 30 μl; all the reagents are prepared in a buffer: • 50 mM HEPES pH 7.5 • 0.03% triton X100 • 10 mM MgCl2 • 5% Glycerol • 1 mM DTT 10 μl of the 10-times concentrated inhibitor are added to 5 μl of enzyme (40 ng final concentration), and 5 μl of incubation buffer containing 100 ng of substrate and 10 μl of ATP (6 μM final concentration) are added.

Setting [9] is: CaCiv1 with Cdk2 substrate, [33P]ATP, 30 min ambient temperature, read-out: IC50 as micromolar.

For orientation: inhibition means the drop in the measured response relative to a control, in per cent.

Structures can show the parent of a compound that is named as a salt. Where two headings read alike, the source gives them in different places.

CaCiv1, sequence (A0A1D8PH53 entry or part of it): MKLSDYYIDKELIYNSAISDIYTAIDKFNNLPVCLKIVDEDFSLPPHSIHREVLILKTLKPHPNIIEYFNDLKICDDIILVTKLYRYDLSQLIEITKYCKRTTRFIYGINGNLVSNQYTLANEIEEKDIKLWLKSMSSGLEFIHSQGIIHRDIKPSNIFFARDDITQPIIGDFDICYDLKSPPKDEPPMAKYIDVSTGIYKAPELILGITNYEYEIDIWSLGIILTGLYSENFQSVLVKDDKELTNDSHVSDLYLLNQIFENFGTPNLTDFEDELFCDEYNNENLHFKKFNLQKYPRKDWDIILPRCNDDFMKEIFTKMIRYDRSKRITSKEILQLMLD
GSK3beta, sequence (P49841 whole entry, species assumed): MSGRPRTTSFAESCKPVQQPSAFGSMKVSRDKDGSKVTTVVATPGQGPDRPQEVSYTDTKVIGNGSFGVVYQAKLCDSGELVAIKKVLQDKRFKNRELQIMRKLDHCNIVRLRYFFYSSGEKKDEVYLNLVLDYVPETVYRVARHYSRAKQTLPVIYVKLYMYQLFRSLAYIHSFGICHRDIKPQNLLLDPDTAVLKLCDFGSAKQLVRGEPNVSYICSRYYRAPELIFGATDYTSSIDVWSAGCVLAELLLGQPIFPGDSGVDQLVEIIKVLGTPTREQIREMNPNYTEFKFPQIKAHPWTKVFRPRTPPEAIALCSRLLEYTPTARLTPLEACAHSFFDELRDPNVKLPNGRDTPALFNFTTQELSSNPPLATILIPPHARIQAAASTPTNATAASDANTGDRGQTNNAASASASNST
JNK3 kinase, sequence (P53779 whole entry): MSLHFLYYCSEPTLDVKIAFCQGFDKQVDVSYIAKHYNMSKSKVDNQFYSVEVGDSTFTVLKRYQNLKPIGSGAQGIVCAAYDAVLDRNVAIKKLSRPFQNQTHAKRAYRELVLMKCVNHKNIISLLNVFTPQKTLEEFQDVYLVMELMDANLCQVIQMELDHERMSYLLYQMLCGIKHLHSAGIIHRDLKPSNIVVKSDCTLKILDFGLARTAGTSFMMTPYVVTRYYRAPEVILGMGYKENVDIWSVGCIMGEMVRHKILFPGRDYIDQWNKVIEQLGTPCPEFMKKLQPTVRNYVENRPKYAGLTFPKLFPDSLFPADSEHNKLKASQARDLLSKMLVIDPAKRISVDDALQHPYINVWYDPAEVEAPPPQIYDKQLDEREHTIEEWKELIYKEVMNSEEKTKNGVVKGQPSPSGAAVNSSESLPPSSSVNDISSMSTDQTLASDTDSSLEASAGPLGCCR
PLK1, sequence (P53350 whole entry, species assumed): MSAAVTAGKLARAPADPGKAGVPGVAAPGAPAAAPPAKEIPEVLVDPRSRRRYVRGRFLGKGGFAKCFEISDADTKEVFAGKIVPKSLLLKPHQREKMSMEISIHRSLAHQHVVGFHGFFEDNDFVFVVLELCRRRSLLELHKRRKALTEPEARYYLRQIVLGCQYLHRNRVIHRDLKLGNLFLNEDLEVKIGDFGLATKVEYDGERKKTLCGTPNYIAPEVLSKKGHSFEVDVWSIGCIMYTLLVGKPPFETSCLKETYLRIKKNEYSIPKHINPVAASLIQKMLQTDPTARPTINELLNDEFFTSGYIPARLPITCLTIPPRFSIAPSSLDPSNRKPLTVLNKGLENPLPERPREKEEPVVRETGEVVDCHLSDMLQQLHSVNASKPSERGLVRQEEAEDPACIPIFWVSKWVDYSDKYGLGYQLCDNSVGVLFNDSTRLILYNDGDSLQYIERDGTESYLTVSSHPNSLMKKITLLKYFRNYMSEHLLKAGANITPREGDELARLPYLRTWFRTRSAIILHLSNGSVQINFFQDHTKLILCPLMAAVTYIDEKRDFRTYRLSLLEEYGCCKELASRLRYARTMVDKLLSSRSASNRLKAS
T1 sequence (P12931 whole entry): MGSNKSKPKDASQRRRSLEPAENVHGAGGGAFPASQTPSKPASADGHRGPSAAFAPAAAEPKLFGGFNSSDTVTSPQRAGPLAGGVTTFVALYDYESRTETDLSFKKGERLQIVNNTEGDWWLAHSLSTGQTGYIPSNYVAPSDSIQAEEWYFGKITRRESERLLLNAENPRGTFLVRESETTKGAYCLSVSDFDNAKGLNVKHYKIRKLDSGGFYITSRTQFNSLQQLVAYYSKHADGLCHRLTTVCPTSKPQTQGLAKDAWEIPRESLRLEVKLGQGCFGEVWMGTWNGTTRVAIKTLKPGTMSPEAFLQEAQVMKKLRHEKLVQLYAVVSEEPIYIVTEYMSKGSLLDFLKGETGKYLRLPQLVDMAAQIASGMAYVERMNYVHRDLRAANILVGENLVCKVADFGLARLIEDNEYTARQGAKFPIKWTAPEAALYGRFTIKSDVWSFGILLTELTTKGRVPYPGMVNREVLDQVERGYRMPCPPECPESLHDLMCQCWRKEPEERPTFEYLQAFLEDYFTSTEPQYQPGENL

In the case of `Cl.Cl.N[C@H]1CC[C@H](Nc2nc(-n3cnc4ccccc43)c3nc[nH]c3n2)CC1` [Example 2, Trans-N-[6-(1H-benzimidazol-1-yl)-9H-purin-2-yl]-1,4-cyclohexanediamine dihydrochloride], the IC50 amounted to 0.5 µM in assay [1] and 0.6 µM in assay [4]. Also, the inhibition at 20 µM in assay [2] turned out to be 97%. In addition, the “percentage inhibition at 20 μM” value in assay [3] came out at 100%.
As to `OCC(CO)Nc1nc(-n2cnc3ccccc32)c2nc[nH]c2n1` [Example 18, 2-[[6-(1H-benzimidazol-1-yl)-9H-purin-2-yl]amino]-1,3-propanediol], the IC50 came to 3.9 µM in assay [1] (setting [9]) and 0.16 µM in assay [5].
Take `O[C@H]1CC[C@H](Nc2nc(-n3cnc4ccccc43)c3nc[nH]c3n2)CC1` [Example 24, Trans-4-[[6-(1H-benzimidazol-1-yl)-9H-purin-2-yl]amino]cyclohexanol]: the IC50 in assay [1] (setting [9]) turned out to be 0.39 µM. For the same compound, the inhibition at 20 µM in assay [6] was determined as 99%; in assay [7], 96%. In addition, the “percentage inhibition at 20 μM” value in assay [3] is on record as 100%.
Consider `CC1Cc2ccccc2N1c1nc(N[C@H]2CC[C@H](N)CC2)nc2[nH]cnc12` (stereo partly drawn) [Example 26, dihydrochloride], for which the IC50 came out at 0.31 µM in assay [8] and 1.3 µM in assay [4].
Turning to “Trans-N-[6-(5,6-dichloro-2,3-dihydro-1H-indol-1-yl)-9H-purin-2-yl]-1,4-cyclohexanediamine dihydrochloride [Example 1]”, the IC50 was 0.8 µM in assay [1] (setting [9]), 0.29 µM in assay [8] and 0.21 µM in assay [5].
